Data taken from patent publication US20250073209A1, “COVALENT TARGETING OF RhoA FOR CANCER THERAPY” (The University of Hong Kong, priority 2023, published 2025).
pIC50: −log10 of the molar value.

Assays:
[1] = test system: HCT116 cells; assay: Gel ABPP in HCT116 cells with CL16-alkyne; assay type: cell-based, human
Experimental: HCT116 and SW620 cells were plated onto 6-well plate at a density of 5×10^5 cells per well overnight. Then the cells were treated with CL16 at indicated concentration for 2 hours, followed by treatment with CL16-alkyne (1 μM) for 2 hours. After treatment, the cells were washed with PBS and lysed by probe sonication. Cell debris were removed by centrifugation at 5,000g for 10 min at 4° C. 50 μL of normalized protein lysates (2 mg/mL) were labeled with azide-fluor 545 by copper-catalyzed azide-alkyne cycloaddition at room temperature in dark for an hour. Then, the reaction was quenched by boiling in sampling buffer and samples were subjected to SDS-PAGE to separate proteins band for measuring in-gel fluorescence. After imaging, the gel was washed with MilliQ and incubated with Coomassie Blue stain with gentle shaking.
To identify protein target and any off-targets of CL16 in CRCs, a molecular probe of CL16, CL16-alkyne (FIG. 6A), was synthesized. […] The protein bands were then visualized by their in-gel fluorescence or blotted for RhoA. […] The probe-labeled proteins were installed with rhodamine through CuAAC, and visualized by their in-gel fluorescence after SDS-PAGE. A protein band with strong fluorescence was found at −22 kDa in the sample incubated with CL16-alkyne only, in line with the molecular weight of RhoA (FIG. 6C).

[2] = test system: HT29 xenograft; assay: Mouse HT29 xenograft model; assay type: in vivo
Experimental: FIG. 7A is a graph showing inhibition of tumor growth by CL16 in mouse HCT116 xenografts through intraperitoneal injection at 10 mg/kg (n=6 per group). FIG. 7B is a graph showing inhibition of tumor growth by CL16 in mouse HT29 xenografts through intraperitoneal injection at 10 mg/kg (n=7). FIG. 7C is a graph showing the body weight of mice with HT29 xenografts throughout the treatment with CL16. FIG. 7D is a graph showing inhibition of tumor growth by CL16 in mouse SW620 xenografts through intraperitoneal injection at 10 mg/kg (n=6 per group). FIG. 7E is a bar graph showing the tumor weight of harvested tumors from the treated mice with SW620 xenografts. FIG. 7F is a graph showing the body weight of mice with SW620 xenografts throughout the treatment with CL16. Statistical analysis using a two-tailed Student's t-test. *P<0.05.
7-week-old mice with weight around 20 g were inoculated subcutaneously with HCT116 (2×10^6 cells per mouse) or HT29 (3×10^6 cells per mouse) cells, in serum-free RMPI or Matrigel in PBS respectively. […] The tumor volume and body weight of the nude mice were measured throughout the treatment. The tumor volume was calculated by the equation: Volume (mm^3)=1×w^2/2, where 1 and w were the length and width of the tumor. At the end of the treatment, the mice were sacrificed and the tumor weight was measured. […]

[3] = test system: HT29 spheroid; assay: Spheroid formation assay, HT29; assay type: cell-based, human
Experimental: FIGS. 5A-5B are graphs showing the anticancer effects of CL16 in HT29 (FIG. 5A) and SW620 (FIG. 5B) spheroids. HT29 spheroid or SW620 spheroid were treated with CL16 at the indicated concentrations for 10 days. The spheroids were then imaged by microscope using 10× objective and the size was determined by ImageJ.
5,000 cells of HT29 and SW620 cells were inoculated in serum-free DMEM/F12 medium with 20 ng/mL […] growth factor (EGF) in 96-well round-bottom low-affinity plate (Nunc). Medium was supplemented with CL16 or Rhosin when spheroid has formed an opaque core. Morphology was recorded under a light microscope with 10× objective.
To further investigate the anticancer effects of CL16, HT29 and SW620 cells were inoculated as spheroids in low-affinity plate with 20 ng/mL EGF, and incubated with different concentrations of CL16 or Rhosin.

[4] = biological target: RhoA (Homo sapiens, UniProt P61586); assay: GDP-GTP exchange assay (BODIPY-GTP); assay type: biochemical; parameters: purchased ab101594; details: fluorescence-based exchange assay
Experimental: Recombinant human RhoA protein (0.2 μg; ab101594) was incubated with GDP (50 nM) in 100 μL of GTP-exchange buffer (20 mM HEPES, 150 mM NaCl, 5 mM MgCl2, pH 7.4) at room temperature for 1 h. CL16 or solvent control was then added to the solution mixture and incubated at room temperature for another hour. For self-exchange assay, BODIPY-GTP (100 nM) was added to the solution and the fluorescence from plate was measured every 30 s. For LARG-mediated GDP-to-GTP exchange, BODIPY-GTP (100 nM) and LARG DH-PH protein (30 nM) were added to the solution mixture and the fluorescence from plate was measured every 30 s. BODIPY-GTP was excited at 477±14 nm and its fluorescence was measured at 525±30 nm using a plate reader (Clariostar).

Chain of RhoA (P61586 whole entry): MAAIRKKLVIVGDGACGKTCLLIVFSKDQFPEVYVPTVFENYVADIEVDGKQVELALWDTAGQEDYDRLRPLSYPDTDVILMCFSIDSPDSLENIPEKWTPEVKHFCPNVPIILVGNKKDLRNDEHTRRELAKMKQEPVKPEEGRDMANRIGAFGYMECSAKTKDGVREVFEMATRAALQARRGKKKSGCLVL

## O=C(CCl)N1N=C(c2cc3ccccc3o2)CC1c1ccco1 (centres unmarked) [CL16]
[1]; CL16 pre-treatment at 10 μM
  fluorescent protein band at 22 kDa labeled by CL16-alkyne: complete abolishment of the protein band
[1]; HCT116 cells
  off-target binding: minimal off-target binding
[2]; HT29 xenografts, FIG. 7C
  body weight, treated vs untreated: no observable difference
[2]; nude mice, 10 mg/kg intraperitoneal
  tumor growth vs vehicle control: significantly inhibited tumor growth
[3]; 20 ng/mL EGF, low-affinity plate
  growth of HT29 spheroids: significant inhibitions in the growth
[3]; Homo sapiens, HT-29, 240 h, 10 days, read-out: cytotoxic IC50 in HT29 spheroids
  pIC50: 5.25
[4]
  GDP-to-GTP self-exchange: significant decreases
  LARG-mediated GDP-to-GTP exchange: significant decreases
